This is an account of results in patent US12297296B2, “Nano small peptide and its use in preparation of drugs for treating and preventing fundus vascular diseases” (FUTU Biotech Co., Ltd., priority 2021, dated 2025).

Data set [1] deals with endothelial cells (primary endothelial cells of mouse brain microvessels). Nature of the data set: CCK8 cytotoxicity assay. It counts as cell-based. The note with it: 20 μM; 12, 14, and 36 h.
For data set [2], the system named is primary mouse brain microvascular endothelial cells. Nature of the data set: Endothelial cell migration (transwell experiment). The note with it: 20 μM, 24 h; for sSema4D-induced endothelial cell migration: sSema4D 1600 ng/mL. It counts as cell-based. As for the experimental part:
The primary mouse brain microvascular endothelial cells were starved with 0.5% ECM for 4 to 6 h. The mouse brain microvascular endothelial cells were seeded in the upper layer of a 24-well transwell chamber (8 μm). 1% ECM medium containing FH (20 μM), FG (20 μM), and Sema4D neutralizing antibody (BMA-12) (2 μg/μL) (the concentration of sSema4D in the medium is 1600 ng/mL) was added to the lower chamber, and an equal volume of DMSO was added as control. The cells were incubated in a 5% CO2 incubator at 37° C. for 24 h. 24 h later, the cells on the bottom of the chamber were fixed with 4% paraformaldehyde and stained with crystal violet, and the endothelial cells that penetrated to the bottom of the chamber were counted under a microscope.

Data set [3] concerns the target T1, sSema4D (Mus musculus, UniProt O09126).
T1 sequence (O09126 24-733 limits assumed): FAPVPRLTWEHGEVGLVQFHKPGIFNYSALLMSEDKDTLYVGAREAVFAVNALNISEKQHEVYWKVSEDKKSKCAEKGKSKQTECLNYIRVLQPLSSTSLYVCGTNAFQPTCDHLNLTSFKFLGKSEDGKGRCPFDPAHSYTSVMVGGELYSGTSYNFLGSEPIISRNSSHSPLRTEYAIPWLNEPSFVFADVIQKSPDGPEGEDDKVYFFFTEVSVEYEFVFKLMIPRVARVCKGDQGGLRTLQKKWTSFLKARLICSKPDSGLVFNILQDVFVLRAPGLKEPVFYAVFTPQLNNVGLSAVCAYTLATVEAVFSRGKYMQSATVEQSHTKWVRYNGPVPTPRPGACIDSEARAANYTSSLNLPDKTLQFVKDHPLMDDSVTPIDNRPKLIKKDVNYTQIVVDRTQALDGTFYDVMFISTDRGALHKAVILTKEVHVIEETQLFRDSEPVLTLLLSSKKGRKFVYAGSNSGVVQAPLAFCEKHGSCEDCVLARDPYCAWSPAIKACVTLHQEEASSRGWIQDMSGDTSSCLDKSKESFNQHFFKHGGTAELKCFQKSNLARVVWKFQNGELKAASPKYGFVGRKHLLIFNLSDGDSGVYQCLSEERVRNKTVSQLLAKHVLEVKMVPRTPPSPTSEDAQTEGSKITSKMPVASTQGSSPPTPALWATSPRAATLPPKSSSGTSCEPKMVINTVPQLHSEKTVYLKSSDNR
Nature of the data set: ELISA of sSema4D in vitreous humor after eye drops. Further details: release and collect the vitreous humor; from tissue; host or cells: vitreous humor of C57 mice. It counts as in vivo. The note with it: C57 mice, 10 μL of 20 μM eye drops, morning and evening, 3 days. From the text:
In this example, 8-week-old C57 male mice were used, with ten data points in each group, and each data point was the average of the experimental results of 5 mice.
The water on the eyeballs was then removed with filter paper to release and collect the vitreous humor. ELISA kit (Shanghai Yuanmu Biotechnology Co., Ltd.) was used to detect the expression of sSema4D protein in vitreous humor.
Control group was instilled with the same volume of PBS solution; vehicle group was instilled the same volume of artificial tears (Systane).

The nature of data set [4]: DLS particle size and zeta potential of nanoparticles. It is filed as physicochemical. The note with it: zeta sizer, 25° C. On the procedure:
First, FG and FH nanoparticle solutions with a concentration of 20 μM were prepared as follows. 0.01 mmol of FG (or FH) was weighed and dissolved in 1 mL of DMSO solution, and then diluted into 5 folds to a concentration of 2 mM, thus obtaining mother solution A. 10 μL of mother solution A was quickly added to 1 mL of water, and the resulting solution was then vortexed for 30 s to obtain a nanoparticle solution. Second, samples were made. 10 ul of FG (or FH) solution was added dropwise onto a copper mesh for 5 min, and the excess solution was removed with filter paper. 10 μL of uranyl acetate stain was added dropwise for 5 min, and the excess stain was removed with filter paper. Washing with 10 μl of deionized water was carried out once. The samples were dried in vacuum overnight. Finally, transmission electron microscopy observations were performed on an HT-7700 transmission electron microscope (Hitachi, Tokyo, Japan). Scale bar was 200 nm.
The particle size and zeta potential of FH and FG nanoparticles were measured with a zeta sizer (Nano ZZ90, Malvern, UK) at 25° C.

Data set [5] deals with T1, sSema4D. Nature of the data set: sSema4D concentration in a simple medium system (ELISA). It counts as biochemical. Details: the free Sema4D protein after enzyme cleavage of Sema4D, that is, the sSema4D protein purchased from R&D Systems Company; purchased R&D Systems. The conditions noted are these: for sSema4D concentration: sSema4D 1600 ng/mL, peptides 20 μM, antibody 2 μg/μL. On the procedure: The nano small peptides FH, FG, DMSO, and Sema4D neutralizing antibody (BMA-12) were added to the medium (the concentration of sSema4D in the medium was 1600 ng/mL) to ensure that the final concentration of FH and FG was 20 μM, and the final concentration of the Sema4D neutralizing antibody (BMA-12) (BMA-12, i.e., anti-Sema4D) was 2 μg/μL, an equal volume of DMSO was then added as a control, and culture plates were set still at 37° C. for 12, 24, 36, and 48 h, and the culture medium was collected, and the expression of Sema4D protein in the supernatant was detected using an ELISA kit (Shanghai Yuanmu Biotechnology Co., Ltd.).

Data set [6] can be described thus: In vivo imaging of small animals, entry into vitreous humor. Further details: species or system mouse. The conditions noted are these: eye drops (10 μL, 20 μM, three times at 1 h intervals) and vitreous injection (1 μl, 20 μM).
Protocol: 10 μL of FH and FG eye drops (with the concentration of 20 μM, the solvent therein was artificial tears) were instilled on the eyeball surface of mice (8-week-old C57 male mice), once at an interval of 1 h. One hour after the third eye drop, the mice were anesthetized to have cardiac perfusion, the eyeballs of the mice were taken out, the connective tissue on the eye surface was trimmed, and the eyeballs were washed with PBS solution for several times to remove the nano eye drops from the surface of the eyeballs. The eyeball was placed in a small animal imager (at emission wavelength of 535 nm and excitation wavelength of 490 nm) for image acquisition.
Mice (8-week-old C57 male mice) were anesthetized with 4.3% chloral hydrate (0.01 ml/g), and antibiotic eye drops (levofloxacin eye drops), ocular surface anesthetics (Obucaine hydrochloride eye drops) were instilled before the surgery. The head position of the mouse was adjusted to keep the eyeball at the level of the corneal limbus. A small incision was made 1 mm behind the corneal limbus with an insulin injection needle, and 1 μl of nanomedicine FH (20 μM, FG (20 μM) or solvent was injected into the vitreous cavity along the small incision with a Hamilton 33 G syringe); the needle tip entered vertically and then tilted, and after pushing, the needle was retained for 0.5 to 1 min, and the needle was then pulled out quickly. […]
Data set [7] concerns primary mouse brain microvascular pericytes. The data set can be described thus: Pericyte migration (transwell experiment). It counts as cell-based. The note with it: 20 μM, 36 h; for sSema4D-induced pericyte migration: sSema4D 1600 ng/mL. As for the experimental part:
The primary mouse brain microvascular pericytes were starved with 0.5% PM for 4 to 6 h. The pericytes were seeded in the upper layer of a 24-well transwell chamber (8 μm). The medium containing FH (20 μM), FG (20 μM), and Sema4D neutralizing antibody (BMA-12) (2 μg/μL) (the concentration of sSema4D in the medium is 1600 ng/mL) was added to the lower chamber, and an equal volume of DMSO was added as control. The cells were incubated in a 5% CO2 incubator at 37° C. for 36 h. 36 h later, the cells on the bottom of the chamber were fixed with 4% paraformaldehyde and stained with crystal violet, and the pericytes that penetrated to the bottom of the chamber were counted under a microscope.

Where a SMILES comes first, the peptide text is derived from it. [ ]: non-standard residue; d: D form. The star is where a group is joined. ξ: configuration not given here. Palmitoyl = CCCCCCCCCCCCCCCC(=O)*; ξF = NC(Cc1ccccc1)C(=O)O

For `CCCCCCCCCCCCCCCC(=O)NC(Cc1ccccc1)C(=O)N[C@@H](Cc1ccccc1)C(=O)N[C@H](C(=O)N[C@@H](CC(C)C)C(=O)N[C@@H](CCCCN)C(=O)N[C@@H](CCCCN)C(=O)N[C@@H](CCC(N)=O)C(=O)N[C@@H](CCCCN)C(=O)N[C@@H](CCCNC(=N)N)C(=O)N1CCC[C@H]1C(=O)N[C@@H](CCCNC(=N)N)C(=O)N[C@@H](Cc1c[nH]cn1)C(=O)O)C(C)C` (stereo in doubt) [FH, hexadecanoyl-FFVLK-KQKRPRH], in data set [1], the “toxic effects on endothelial cells” value was “did not cause toxic effects”. Besides, in data set [2], the “inhibition of endothelial cell migration compared with Sema4D neutralizing antibody (BMA-12, 2 μg/μL)” value is “more effective” and the “sSema4D-induced endothelial cell migration” value is recorded as “significantly inhibit”. The “expression of sSema4D protein in the vitreous humor” value on sSema4D [3] is recorded as “reduce the expression of sSema4D protein in the vitreous humor”. Further, in data set [4], the “charge (zeta potential)” value is “+40.4 mV” and the particle diameter came to 54.43±2.8 nm. Further, the sSema4D concentration result at sSema4D [5] (24 h) is “can reduce the sSema4D concentration”. On sSema4D [5] (36 h), the sSema4D concentration result was “can still reduce the sSema4D concentration”. Further, at sSema4D [5] (within the same action time), the “effect on sSema4D concentration compared with FG” value is recorded as “better than that of FG”. Further, the “entry into the vitreous humor of mice” value in data set [6] is reported as “entered the vitreous humor”. In addition, in data set [7], the “inhibition of pericyte migration compared with Sema4D neutralizing antibody (BMA-12, 2 μg/μL)” value is reported as “more effective” and the sSema4D-induced pericyte migration result was “significantly inhibit”.
Regarding `CCCCCCCCCCCCCCCC(=O)NC(Cc1ccccc1)C(=O)N[C@@H](Cc1ccccc1)C(=O)N[C@H](C(=O)N[C@@H](CC(C)C)C(=O)N[C@@H](CCCCN)C(=O)N[C@@H](CCCCN)C(=O)N[C@@H](CC(N)=O)C(=O)N[C@@H](CCCCN)C(=O)N[C@@H](C)C(=O)N[C@@H](C)C(=O)N[C@@H](CCCCN)C(=O)NCC(=O)O)C(C)C` (stereo partly shown) [FG] (Palmitoyl-[ξF]FVLKKNKAAKG-OH), in data set [1], the “toxic effects on endothelial cells” value is “did not cause toxic effects”. In data set [2], the “inhibition of endothelial cell migration compared with Sema4D neutralizing antibody (BMA-12, 2 μg/μL)” value was “more effective” and the “sSema4D-induced endothelial cell migration” value was “significantly inhibit”. The “expression of sSema4D protein in the vitreous humor” value on sSema4D [3] is listed as “reduce the expression of sSema4D protein in the vitreous humor”. Further, in data set [4], the “charge (zeta potential)” value is “+44.8 mV” and the particle diameter is recorded as 57.67±2.6 nm. In addition, the sSema4D concentration entry on sSema4D [5] (24 h) is reported as “can reduce the sSema4D concentration”. Further, the sSema4D concentration result at sSema4D [5] (36 h) is on record as “can still reduce the sSema4D concentration”. Further, in data set [6], the “entry into the vitreous humor of mice” value is “entered the vitreous humor”. In addition, the sSema4D-induced pericyte migration result in data set [7] is reported as “significantly inhibit”.
